Test results reported in patent US20230406849A1, “KRAS INHIBITORS FOR TREATMENT OF CANCERS” (TYLIGAND BIOSCIENCE (SHANGHAI) LIMITED, priority 2020, published 2023).
Like-named read-outs stand apart in the source and are kept apart here.

What was measured:
[1] = test system: human non-small cell lung cancer NCI-H358 xenograft; assay: Antitumor activity in NCI-H358 xenograft mouse model; assay type: in vivo, NPSG mice; settings: for TGI(%) / Tumor volume (mm^3) (day 14): NPSG mice, gavage once daily 10 mg/kg, day 14
Procedure: Tumor growth inhibitory activity of the compounds of the present disclosure was evaluated and verified in a human non-small cell lung cancer NCI-H358 xenograft mouse model.
[Test materials]: NCI-H358 cell line carrying KRAS G12C mutation, provided by KYinno Biotechnology Co., Ltd. (from ATCC, Cat #CRL-5807). NPSG mice, female, provided by Beijing Phenotek Biotechnologies Inc.
[Experimental procedure]: 5×10^6 NCI-H358 cells (containing 50% Matrigel) were inoculated subcutaneously on the right flank of 6-8 weeks old female NPSG mice, with the inoculation volume of 0.1 mL. When the average tumor size reached 160-220 mm^3, the mice were grouped randomly according to tumor size and body weight, upon which the mice were treated with compounds on the same day designated as Day 0. The mice were gavage administrated once daily at 10 mg/kg or solvent control (50 mM citrate buffer containing 10% cyclodextrin, pH5.0). Tumor volume and body weight were measured twice a week during the study. The tumor volume was calculated by the formula V=D×d×d/2, wherein D and d refer to the long and short diameter of the tumor respectively.
In addition, using the same materials and procedures as above, the tumor inhibition activity of Example 9 at different doses in the above-mentioned non-small cell lung cancer mouse model and its effect on body weight were also investigated.

CYP1A2 = target: T1, CYP1A2 (Homo sapiens, UniProt P05177); assay: CYP inhibition in human liver microsomes; assay type: in vitro ADME; settings: pH 7.4, read-out: CYP inhibition rate (%) 1A2
T1 construct: Human liver microsomes (Corning, Cat #452161); tissue Corning 452161; host or cells: human liver microsomes
T1 sequence (P05177 1-516): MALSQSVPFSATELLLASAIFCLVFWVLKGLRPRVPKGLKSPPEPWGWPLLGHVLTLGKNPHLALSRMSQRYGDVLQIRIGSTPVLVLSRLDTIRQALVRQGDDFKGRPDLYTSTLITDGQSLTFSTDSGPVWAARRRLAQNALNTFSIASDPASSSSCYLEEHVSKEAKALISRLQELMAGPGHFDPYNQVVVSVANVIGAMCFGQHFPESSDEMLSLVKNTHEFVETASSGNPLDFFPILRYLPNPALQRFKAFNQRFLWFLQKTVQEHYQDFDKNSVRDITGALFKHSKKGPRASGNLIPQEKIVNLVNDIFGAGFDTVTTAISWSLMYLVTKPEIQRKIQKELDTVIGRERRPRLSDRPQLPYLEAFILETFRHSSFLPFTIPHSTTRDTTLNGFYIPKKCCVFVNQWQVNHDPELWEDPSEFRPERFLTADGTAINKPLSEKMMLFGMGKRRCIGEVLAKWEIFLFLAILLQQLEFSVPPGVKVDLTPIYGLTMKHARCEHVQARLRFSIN
Excerpt: (§1) The inhibitory effect of the compounds of the present disclosure on the cytochrome P450 enzyme system was investigated in this assay.
(§2) [Test materials]: Human liver microsomes (Corning, Cat #452161); Reduced nicotinamide adenine dinucleotide phosphate (NADPH, MCE, Cat #HY-F0003/CS-4998); Phenacetin, Diclofenac, α-naphthoflavone, Omeprazole and Ketoconazole were purchased from TCI; S-Mephenytoin and testosterone were purchased from CAYMAN; Midazolam was purchased from Bioreclamation IVT; Quinidine was purchased from Damas-beta; Sulfaphenazole was purchased from MCE; Bufuralol was purchased from TRC.
(§3) [Experimental procedure]: Preparation of 0.1M potassium phosphate buffer (K-buffer): 100 mM potassium phosphate buffer (K-buffer) was prepared with potassium dihydrogen phosphate and dipotassium hydrogen phosphate, and adjusted to pH 7.4.
(§4) Preparation of 400× test compound and reference inhibitor solutions: 8 μL of 10 mM stock solution of the test compounds was mixed with 12 μL of acetonitrile. Preparation of inhibitor cocktail solution for CYP1A2, CYP2C9 and CYP2D6: […] of 1 mM α-naphthoflavone, 10 µL of 40 mM Sulfaphenazole, 10 μL of 10 mM Quinidine and 8 μL DMSO were mixed. Preparation of inhibitor cocktail solution for CYP3A4 and CYP2C19: 8 μL of DMSO solution was mixed with 12 μL of acetonitrile.
(§5) Preparation of 4×NADPH potassium phosphate solution: 66.7 mg of NADPH was added to 10 mL of K-buffer pH7.4. Preparation of 4× substrate potassium phosphate solution: the different substrates were prepared to 4-fold concentration test solutions with 10 mL 0.1M K-buffer according to the concentration requirements.
(§6) Preparation of 0.2 mg/mL human liver microsomes (HLM) solution: […] of 20 mg/mL human liver microsomes was added to […] K-buffer, and the solution was stored in ice bath until use.
(§7) 600 μL of 0.2 mg/mL HLM was added to a 96-well plate, followed by the addition of 3 μL of a 400-fold test compound solution; 200 μL of 0.2 mg/mL HLM was added to a 96-well plate, and 1 μL of the diluted positive control inhibitor solution was added. 30 μL of the compound solution mixed with human liver microsomes was added into a 96-well plate, and 15 μL of substrate solution was added then. The solutions obtained above, and the prepared NADPH solution were pre-incubated at 37° C. for 5 min. 15 μL of the pre-warmed NADPH solution was added to the reaction plate, mixed well, to initiate the reaction. The reaction plate was incubated at 37° C., for 5 minutes (3A4), for 10 minutes (1A2, 2C9, 2D6), for 45 minutes (2C19). At the end of the reaction, 120 μL of acetonitrile containing internal standard was added to quenched the reaction. Samples were vortexed for 10 min, centrifuged at 5594 g for 15 min, and prepared for LC-MS/MS analysis.

CYP2C19 = target: T2, CYP2C19 (Homo sapiens, UniProt P33261); assay: CYP inhibition in human liver microsomes; assay type: in vitro ADME; settings: pH 7.4, read-out: CYP inhibition rate (%) 2C19
T2 construct: Human liver microsomes (Corning, Cat #452161); tissue Corning 452161; host or cells: human liver microsomes
T2 sequence (P33261 whole entry): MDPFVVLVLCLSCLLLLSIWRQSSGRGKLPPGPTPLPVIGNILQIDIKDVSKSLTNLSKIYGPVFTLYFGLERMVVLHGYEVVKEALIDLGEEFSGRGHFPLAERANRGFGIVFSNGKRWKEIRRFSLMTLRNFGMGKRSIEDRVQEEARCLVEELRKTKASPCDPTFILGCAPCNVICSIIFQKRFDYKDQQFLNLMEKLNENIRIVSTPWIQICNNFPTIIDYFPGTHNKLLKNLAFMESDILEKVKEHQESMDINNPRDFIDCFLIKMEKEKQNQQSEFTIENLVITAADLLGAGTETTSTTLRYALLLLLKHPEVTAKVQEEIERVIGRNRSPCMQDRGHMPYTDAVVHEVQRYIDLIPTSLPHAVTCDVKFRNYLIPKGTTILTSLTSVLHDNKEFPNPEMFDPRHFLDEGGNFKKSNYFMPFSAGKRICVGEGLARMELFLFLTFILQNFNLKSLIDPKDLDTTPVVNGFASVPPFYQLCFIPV
Excerpt: as §1, §2, §3, §4, §5, §6, §7

CYP2C9 = target: T3, CYP2C9 (Homo sapiens, UniProt P11712); assay: CYP inhibition in human liver microsomes; assay type: in vitro ADME; settings: pH 7.4, read-out: CYP inhibition rate (%) 2C9
T3 construct: Human liver microsomes (Corning, Cat #452161); tissue Corning 452161; host or cells: human liver microsomes
T3 sequence (P11712 whole entry): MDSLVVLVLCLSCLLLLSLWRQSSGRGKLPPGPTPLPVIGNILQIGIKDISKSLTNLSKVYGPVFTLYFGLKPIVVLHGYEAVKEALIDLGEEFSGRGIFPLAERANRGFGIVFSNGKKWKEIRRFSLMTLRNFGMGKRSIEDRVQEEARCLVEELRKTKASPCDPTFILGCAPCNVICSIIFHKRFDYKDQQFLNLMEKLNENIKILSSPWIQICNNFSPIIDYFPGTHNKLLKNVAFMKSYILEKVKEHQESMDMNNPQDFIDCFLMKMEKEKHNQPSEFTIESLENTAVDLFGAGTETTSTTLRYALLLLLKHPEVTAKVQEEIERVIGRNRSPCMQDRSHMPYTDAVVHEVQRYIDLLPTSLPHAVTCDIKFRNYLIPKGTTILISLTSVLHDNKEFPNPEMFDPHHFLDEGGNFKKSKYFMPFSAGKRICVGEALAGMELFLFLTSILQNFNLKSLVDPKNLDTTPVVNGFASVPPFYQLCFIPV
Excerpt: as §1, §2, §3, §4, §5, §6, §7

CYP2D6 = target: T4, CYP2D6 (Homo sapiens, UniProt P10635); assay: CYP inhibition in human liver microsomes; assay type: in vitro ADME; settings: pH 7.4, read-out: CYP inhibition rate (%) 2D6
T4 construct: Human liver microsomes (Corning, Cat #452161); tissue Corning 452161; host or cells: human liver microsomes
T4 sequence (P10635 whole entry): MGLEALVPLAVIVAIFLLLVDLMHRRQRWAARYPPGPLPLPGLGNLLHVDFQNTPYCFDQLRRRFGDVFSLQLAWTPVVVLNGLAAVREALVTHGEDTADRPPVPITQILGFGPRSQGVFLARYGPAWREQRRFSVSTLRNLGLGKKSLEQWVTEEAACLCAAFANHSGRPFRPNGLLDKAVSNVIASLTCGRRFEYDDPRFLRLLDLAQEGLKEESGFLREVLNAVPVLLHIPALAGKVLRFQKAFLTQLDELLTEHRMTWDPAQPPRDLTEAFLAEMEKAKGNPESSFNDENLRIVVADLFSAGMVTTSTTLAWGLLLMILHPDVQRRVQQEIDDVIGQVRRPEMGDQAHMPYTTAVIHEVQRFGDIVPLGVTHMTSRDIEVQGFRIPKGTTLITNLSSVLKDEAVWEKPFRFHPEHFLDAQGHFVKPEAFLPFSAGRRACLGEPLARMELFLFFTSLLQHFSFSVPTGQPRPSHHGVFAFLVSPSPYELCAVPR
Excerpt: as §1, §2, §3, §4, §5, §6, §7

CYP3A4 = target: T5, CYP3A4 (Homo sapiens, UniProt P08684); assay: CYP inhibition in human liver microsomes; assay type: in vitro ADME
T5 construct: Human liver microsomes (Corning, Cat #452161); tissue Corning 452161; host or cells: human liver microsomes
T5 sequence (P08684 whole entry): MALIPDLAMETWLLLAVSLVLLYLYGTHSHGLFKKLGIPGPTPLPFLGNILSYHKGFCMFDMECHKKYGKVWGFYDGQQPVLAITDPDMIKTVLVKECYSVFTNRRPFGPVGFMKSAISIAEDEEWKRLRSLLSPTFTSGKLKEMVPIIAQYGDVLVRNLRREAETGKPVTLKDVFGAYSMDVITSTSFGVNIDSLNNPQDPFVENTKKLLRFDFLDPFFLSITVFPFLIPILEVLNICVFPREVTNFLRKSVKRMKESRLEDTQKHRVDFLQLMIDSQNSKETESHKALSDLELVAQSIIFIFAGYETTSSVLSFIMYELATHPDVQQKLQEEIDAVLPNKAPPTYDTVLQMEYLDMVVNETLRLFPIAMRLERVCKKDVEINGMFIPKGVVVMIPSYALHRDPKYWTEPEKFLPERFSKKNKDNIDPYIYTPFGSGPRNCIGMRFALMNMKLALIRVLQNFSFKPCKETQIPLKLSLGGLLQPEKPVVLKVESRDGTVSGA
Excerpt: as §1, §2, §3, §4, §5, §6, §7

[2] = pH 7.4, probe midazolam, substrate midazolam, read-out: CYP inhibition rate (%) CYP3A4 (midazolam)
[3] = pH 7.4, probe testosterone, substrate testosterone, read-out: CYP inhibition rate (%) CYP3A4 (testosterone)

## C=CC(=O)N1CCN(c2nc(=O)n(-c3c(C)ccnc3C(C)C)c3nc(-c4c(O)cccc4F)c(F)cc23)[C@@H](C)C1 (atropisomer, axis not shown) [AMG510, reference compound]
[1]
  TGI(%): 66%
  Tumor volume (mm^3) (day 14): 525.1 mm^3
CYP1A2
  inhibition at 10 min, 10 µM: 10.3%
CYP2C19
  inhibition at 45 min, 10 µM: 11.1%
CYP2C9
  inhibition at 10 min, 10 µM: 26.2%
CYP2D6
  inhibition at 10 min, 10 µM: 23.7%
CYP3A4; [2]
  inhibition at 5 min, 10 µM: 63.7%
CYP3A4; [3]
  inhibition at 5 min, 10 µM: 24.8%

## C=CC(=O)N1CCN(c2ncnc3c(F)c(-c4ccc(F)c5sc(N)nc45)c(Cl)cc23)CC1 [Ref. Comp. A, reference compound]
CYP1A2
  inhibition at 10 min, 10 µM: 73%
CYP2C19
  inhibition at 45 min, 10 µM: 74.3%
CYP2C9
  inhibition at 10 min, 10 µM: 52.4%
CYP2D6
  inhibition at 10 min, 10 µM: 32.6%
CYP3A4; [2]
  inhibition at 5 min, 10 µM: 11.1%
CYP3A4; [3]
  inhibition at 5 min, 10 µM: 10.9%

## C=CC(=O)N1CCN(c2c(C#N)cnc3c(F)c(-c4ccc(F)c5sc(N)nc45)c(Cl)cc23)CC1 [Example 9, 4-(4-Acryloylpiperazin-1-yl)-7-(2-amino-7-fluorobenzo[d]thiazol-4-yl)-6-chloro-8-fluoroquinoline-3-carbonitrile]
[1]; different doses, FIG. 1
  effect on body weight: without significant side effects on body weight
  tumor inhibition activity: excellent tumor inhibition activity
CYP1A2
  inhibition at 10 min, 10 µM: 13.6%
CYP2C19
  inhibition at 45 min, 10 µM: 34.9%
CYP2C9
  inhibition at 10 min, 10 µM: 42.5%
CYP2D6
  inhibition at 10 min, 10 µM: -11.4%
CYP3A4; [2]
  inhibition at 5 min, 10 µM: 24%
CYP3A4; [3]
  inhibition at 5 min, 10 µM: 30.9%

## C=CC(=O)N1CCN(c2c(C#N)cnc3c(F)c(-c4ccc(F)c5sc(N)nc45)c(Cl)cc23)C[C@H]1C [Example 8, 4-((R)-4-acryloyl-3-methylpiperazin-1-yl)-7-(2-amino-7-fluorobenzo[d]thiazol-4-yl)-6-chloro-8-fluoroquinoline-3-carbonitrile]
[1]
  TGI(%): 67%
  Tumor volume (mm^3) (day 14): 519.2 mm^3
CYP1A2
  inhibition at 10 min, 10 µM: 17.6%
CYP2C19
  inhibition at 45 min, 10 µM: 31.2%
CYP2C9
  inhibition at 10 min, 10 µM: 49.9%
CYP2D6
  inhibition at 10 min, 10 µM: 13.8%
CYP3A4; [2]
  inhibition at 5 min, 10 µM: 22%
CYP3A4; [3]
  inhibition at 5 min, 10 µM: 16.9%
